Values joined by “and” are separate entries in the source; they are usually repeats but may differ in a detail not shown here. Identical values can stand only once.
System: Sprague-Dawley rats
Assay: Retinoid analyses in liver, serum and kidney
Type: in vivo, Rattus norvegicus
Conditions: males
Experimental: Retinoids in liver, serum, and kidney were analyzed according to Schmidt et al.. The polar retinoids 9-cis-retinoic acid (9-cis-RA), 13-cis-retinoic acid (13-cis-RA), 13-cis-4-oxo-retinoic acid (13-cis-4-o-RA), 9-cis-4-oxo-13,14-dihydro-retinoic acid (9-cis-4-o-13,14-dh-RA), all-trans retinoic acid (all-trans RA) and the apolar retinoids retinol and retinyl palmitate were extracted by a single liquid-extraction, separated from each other via solid-phase extraction using an aminopropyl phase, and then injected onto two different HPLC systems that were coupled with UV detection. […] The limits of detection (LOD) for all-trans RA and 9c-4o-13,14-dh-RA were 0.7 and 1.0 pmol/g tissue, and 0.3 and 0.6 pmol/ml serum, respectively. Retinol and retinyl palmitate were separated on a J'sphere ODS-H80 (4.6×150 mm, 4 µm particle size) obtained from YMC (Schermbeck, Germany), and were detected at 325 nm. The LOD for retinol and retinyl palmitate were 5.6 and 5.5 pmol/g tissue, and 4.2 and 4.2 pmol/ml serum, respectively.
Data were also analyzed using the BMD method, which is based on dose-response modeling of the full data set using a nested family of exponential and Hill models. The analyses were done on data of males and females combined, using sex as a covariate. […] In that case, different Critical Effect Doses (CEDs) and CEDs at the lowest bound of the confidence interval (CED-L) were generated for each sex. If no difference between sexes is detected, a CED and CED-Ls for the combined data is generated. However, this was also done if the curve fits are close, and separate analyses for males and females were then performed manually. CEDs and CED-Ls were calculated at the predefined Critical Effect Size (CES) of 5% (EFSA standard) or 10%.

[1] = total dose 100 mg/kg bw, group mean, N=5
[2] = total dose 300 mg/kg bw, group mean, N=5
[3] = total dose 1000 mg/kg bw, group mean, N=5
[4] = total dose 1700 mg/kg bw, group mean, N=5
[5] = adipose tissue concentration based
[6] = controls vs high dose, fitted model

In the case of `Clc1cc(Cl)c(-c2cc(Cl)c(Cl)c(Cl)c2Cl)cc1Cl` [PCB 180, 2,2′,3′,4,4′,5,5′-heptachlorobiphenyl], the “Liver Retinyl esters” value (total dose 100 mg/kg bw, Liver) is reported as 84.5 pmol/mL, the “Liver Retinol” value (total dose 100 mg/kg bw, Liver, n=4) is reported as 1.75 pmol/mL and the “Kidney All-trans RA” value [1] is reported as 37.0 pmol. The “Kidney Retinol” value [1] was 17.3 nmol, the “Kidney Retinyl esters” value [1] was 8.84 nmol and the “Liver All-trans RA” value [1] was 744 pmol. For the same molecule, the “Liver Retinol” value [1] was 0.26 µmol, the “Liver Retinyl esters” value [1] was 10.3 µmol and the “Liver 9-cis-4o-13,14-dh-RA” value (total dose 100 mg/kg bw, n=3) was 22.7 pmol/g. For the same molecule, the “Serum Retinol” value (total dose 100 mg/kg bw, n=4) was 1.75 pmol/mL, the “Kidney All-trans RA” value (total dose 300 mg/kg bw) was 35.9 pmol/g and the “Kidney Retinol” value (total dose 300 mg/kg bw) was 17.5 nmol/g. The “Kidney Retinyl esters” value (total dose 300 mg/kg bw) was 13.9 nmol/g, the “Liver All-trans RA” value (total dose 300 mg/kg bw) was 48.1 pmol/g and the “Liver Retinol” value (total dose 300 mg/kg bw) was 17.4 nmol/g. For the same molecule, the “Liver Retinyl esters” value (total dose 300 mg/kg bw) was 0.56 µmol/g, the “Serum Retinol” value (total dose 300 mg/kg bw) was 1.64 pmol/mL and the “Serum Retinyl esters” value (total dose 300 mg/kg bw) was 67.8 pmol/mL. The “Liver Retinol” value (total dose 300 mg/kg bw, Liver) was 1.64 pmol/mL, the “Liver Retinyl esters” value (total dose 300 mg/kg bw, Liver) was 67.8 pmol/mL and the “Kidney All-trans RA” value [2] was 37.8 pmol. The “Kidney Retinol” value [2] was 18.2 nmol, the “Kidney Retinyl esters” value [2] was 14.5 nmol and the “Liver All-trans RA” value [2] was 863 pmol. The “Liver Retinol” value [2] was 0.31 µmol, the “Liver Retinyl esters” value [2] was 10.1 µmol and the “Liver 9-cis-4o-13,14-dh-RA” value (total dose 300 mg/kg bw, n=4) was 20.9 pmol/g. The “Kidney All-trans RA” value [3] was 35.9 pmol, the “Kidney Retinol” value [3] was 24.5 nmol and the “Kidney Retinyl esters” value [3] was 24.5 nmol. The “Liver 9-cis-4o-13,14-dh RA” value [3] was 455 pmol, the “Liver All-trans RA” value [3] was 1077 pmol and the “Liver Retinol” value [3] was 0.27 µmol. For the same molecule, the “Liver Retinyl esters” value [3] was 8.2 µmol, the “Kidney All-trans RA” value [4] was 32.4 pmol and the “Kidney Retinol” value [4] was 23.3 nmol. For the same molecule, the “Kidney Retinyl esters” value [4] was 25.2 nmol, the “Liver All-trans RA” value [4] was 1178 pmol and the “Liver Retinol” value [4] was 0.23 µmol. The “Liver Retinyl esters” value [4] was 6.4 µmol, the “Kidney retinol amount, CED” value (CES 5%, total dose based) was 206 mg/kg bw and the “Kidney retinol amount, CED-L” value (CES 5%, total dose based) was 147 mg/kg bw. For the same molecule, the “Kidney retinol concentration, CED” value (CES 5%, total dose based) was 200 mg/kg bw, the “Kidney retinol concentration, CED-L” value (CES 5%, total dose based) was 149 mg/kg bw and the “Kidney retinyl esters amount, CED” value (CES 5%, total dose based) was 9.14 mg/kg bw. The “Kidney retinyl esters amount, CED-L” value (CES 5%, total dose based) was 3.10 mg/kg bw, the “Kidney retinyl esters concentration, CED” value (CES 5%, total dose based) was 9.9 mg/kg bw and 9.88 mg/kg bw and the “Kidney retinyl esters concentration, CED-L” value (CES 5%, total dose based) was 3.35 mg/kg bw. For the same molecule, the “Liver all-trans RA amount, CED” value (CES 5%, total dose based) was 21.7 mg/kg bw, the “Liver all-trans RA amount, CED-L” value (CES 5%, total dose based) was 9.07 mg/kg bw and the “Liver all-trans RA concentration, CED” value (CES 5%, total dose based) was 450 mg/kg bw. The “Liver all-trans RA concentration, CED-L” value (CES 5%, total dose based) was 268 mg/kg bw, the “Liver retinol amount, CED” value (CES 5%, total dose based) was 437 mg/kg bw and the “Liver retinol amount, CED-L” value (CES 5%, total dose based) was 261 mg/kg bw. For the same molecule, the “Liver retinol concentration, CED” value (CES 5%, total dose based) was 32 mg/kg bw and 31.9 mg/kg bw, the “Liver retinol concentration, CED-L” value (CES 5%, total dose based) was 6.10 mg/kg bw and the “Liver retinyl esters amount, CED” value (CES 5%, total dose based) was 145 mg/kg bw. The “Liver retinyl esters amount, CED-L” value (CES 5%, total dose based) was 123 mg/kg bw, the “Liver retinyl esters concentration, CED” value (CES 5%, total dose based) was 22 mg/kg bw and 21.5 mg/kg bw and the “Liver retinyl esters concentration, CED-L” value (CES 5%, total dose based) was 12.9 mg/kg bw. For the same molecule, the “Kidney retinol amount, CED” value (CES 10%, total dose based) was 402 mg/kg bw, the “Kidney retinol amount, CED-L” value (CES 10%, total dose based) was 288 mg/kg bw and the “Kidney retinol concentration, CED” value (CES 10%, total dose based) was 390 mg/kg bw. The “Kidney retinol concentration, CED-L” value (CES 10%, total dose based) was 291 mg/kg bw, the “Kidney retinyl esters amount, CED” value (CES 10%, total dose based) was 18.5 mg/kg bw and the “Kidney retinyl esters amount, CED-L” value (CES 10%, total dose based) was 6.26 mg/kg bw. The “Kidney retinyl esters concentration, CED” value (CES 10%, total dose based) was 20 mg/kg bw, the “Kidney retinyl esters concentration, CED-L” value (CES 10%, total dose based) was 6.77 mg/kg bw and the “Liver all-trans RA amount, CED” value (CES 10%, total dose based) was 44.7 mg/kg bw. For the same molecule, the “Liver all-trans RA amount, CED-L” value (CES 10%, total dose based) was 18.7 mg/kg bw, the “Liver all-trans RA concentration, CED” value (CES 10%, total dose based) was 879 mg/kg bw and the “Liver all-trans RA concentration, CED-L” value (CES 10%, total dose based) was 523 mg/kg bw. The “Liver retinol amount, CED” value (CES 10%, total dose based) was 897 mg/kg bw, the “Liver retinol amount, CED-L” value (CES 10%, total dose based) was 536 mg/kg bw and the “Liver retinol concentration, CED” value (CES 10%, total dose based) was 56 mg/kg bw. For the same molecule, the “Liver retinol concentration, CED-L” value (CES 10%, total dose based) was 10.4 mg/kg bw, the “Liver retinyl esters amount, CED” value (CES 10%, total dose based) was 296 mg/kg bw and the “Liver retinyl esters amount, CED-L” value (CES 10%, total dose based) was 252 mg/kg bw. The “Liver retinyl esters concentration, CED” value (CES 10%, total dose based) was 43.9 mg/kg bw, the “Liver retinyl esters concentration, CED-L” value (CES 10%, total dose based) was 26.6 mg/kg bw and the “Kidney retinol concentration, CED” value [5] was 863 µg/g lipid. For the same molecule, the “Kidney retinyl ester concentration, CED” value [5] was 42 µg/g lipid, the “Liver all-trans RA concentration, CED” value [5] was 1920 µg/g lipid and the “Liver retinol concentration, CED” value [5] was 31 µg/g lipid. The “Liver retinol, CED-L” value [5] was 18800 ng/g lipid, the “Liver retinyl ester concentration, CED” value [5] was 108 µg/g lipid and the “Kidney retinol concentration, Maximum response” value [6] was 51.5%. The “Liver all-trans RA concentration, Maximum response” value [6] was 20% and 20.3%, the “Liver 9-cis-4o-13,14-dh RA” value (total dose 10 mg/kg bw, group mean, n=3) was 163 pmol and the “Liver 9-cis-4o-13,14-dh RA” value (total dose 30 mg/kg bw, n=1) was 389b pmol. For the same molecule, the “Liver 9-cis-4o-13,14-dh-RA” value (total dose 30 mg/kg bw, n=1) was 30.8 pmol·days/g, the “Liver 9-cis-4o-13,14-dh RA” value (total dose 100 mg/kg bw, group mean, n=3) was 434 pmol and the “Liver 9-cis-4o-13,14-dh RA” value (total dose 300 mg/kg bw, group mean, n=4) was 403 pmol. The “Liver 9-cis-4o-13,14-dh RA” value (total dose 1700 mg/kg bw, group mean, n=4, one exceptionally high value excluded as an outlier) was 454 pmol.

Reference: publication PMC4138103 (PLoS ONE, 2014)
